In patent US8859250B2, “Crystal structure of glutaminyl cyclase” (Probiodrug AG, priority 2010, dated 2014) one finds Ki and solubility in water data, which are given here for two compounds.

In general, Ki refers to a measure of affinity in units of concentration, obtained from inhibition or displacement. Read a high Ki as lower affinity.

Data set [1] has as its target T1, murine QC (mQC) (Mus musculus, UniProt Q9CYK2).
T1 construct: made in house; host or cells: Pichia pastoris (vector pPICZalphaB, secreted)
The data set can be described thus: Ki-values of selected inhibitors for murine QC. Conditions: murine glutaminyl cyclase. Format: biochemical.

A short description of data set [2]: Solubility in water. Type of data set: physicochemical.

T1 sequence (Q9CYK2 36-362): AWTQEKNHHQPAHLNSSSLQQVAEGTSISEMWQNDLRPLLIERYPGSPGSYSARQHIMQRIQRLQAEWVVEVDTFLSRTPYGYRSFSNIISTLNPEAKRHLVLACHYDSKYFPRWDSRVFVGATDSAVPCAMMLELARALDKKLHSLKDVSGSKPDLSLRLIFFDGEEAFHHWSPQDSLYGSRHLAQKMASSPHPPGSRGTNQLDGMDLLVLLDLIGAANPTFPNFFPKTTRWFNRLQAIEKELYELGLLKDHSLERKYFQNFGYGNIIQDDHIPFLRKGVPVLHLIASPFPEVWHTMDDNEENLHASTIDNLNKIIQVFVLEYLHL

`COc1ccc(NC(=S)NCCCn2ccnc2)cc1OC` [Inhibitor A, 1-(3-(1H-Imidazol-1-yl)propyl)-3-(3,4-dimethoxyphenyl)thiourea]: in data set [1], affinity was put at a Ki of 173 nM. Also, the solubility in water entry in data set [2] is listed as “soluble in water”.

As to `Cc1cc(C)c(N/C(=N/C#N)NCCCn2cncc2C)c(C)c1` [Inhibitor C], in data set [1], affinity was put at a Ki of 51.3 nM. In other words, the double-digit nanomolar range.
